According to ChEMBL document CHEMBL4732045, “Amide Bond Bioisosteres: Strategies, Synthesis, and Successes” (J Med Chem, 2020):

Tests used:
[1] = target: T1, Human immunodeficiency virus type 1 protease (Human immunodeficiency virus 1, UniProt Q72874); experiment: Inhibition of HIV-1 protease
[2] = test system: PC-3; experiment: Cytotoxicity activity against human PC-3 cells incubated for 96 hrs by MTT method; format: functional, cell-based; conditions: PC-3, 96 h
[3] = test system: CAKI-2; experiment: Cytotoxicity against human Caki-2 cells incubated for 96 hrs by MTT assay; format: functional, cell-based; conditions: CAKI-2, 96 h
[4] = test system: HeLa; experiment: Cytotoxicity against human HeLa cells incubated for 96 hrs by MTT assay; format: functional, cell-based
[5] = test system: HL-60; experiment: Cytotoxicity activity against human HL-60 cells incubated for 96 hrs by MTT assay; format: functional, cell-based; conditions: HL-60, 96 h
[6] = test system: A549; experiment: Cytotoxicity against human A549 cells incubated for 96 hrs by MTT assay; format: functional, cell-based; conditions: A549, 96 h
[7] = test system: Human immunodeficiency virus 1; experiment: Antiviral activity against HIV1 3b isolate infected in human MT4 cells assessed as blockade of viral spread pretreated for 24 hrs followed by viral infection and subsequently treated with compound every 2 to 3 days post infection by ELISA; format: functional; conditions: Human immunodeficiency virus 1, 3b isolate, read-out: CIC95
[8] = Inhibition of HIV2 protease; parameters: species or system Human immunodeficiency virus 2
[9] = target: Integrin alpha-4/beta-1 (Homo sapiens, UniProt P05556+P13612); experiment: Displacement of 125I-VCAM-Ig from VLA4 in human Jurkat cells incubated for 30 mins by scintillation counting method; format: cell-based
Chain of Integrin alpha-4/beta-1 (P05556 whole entry): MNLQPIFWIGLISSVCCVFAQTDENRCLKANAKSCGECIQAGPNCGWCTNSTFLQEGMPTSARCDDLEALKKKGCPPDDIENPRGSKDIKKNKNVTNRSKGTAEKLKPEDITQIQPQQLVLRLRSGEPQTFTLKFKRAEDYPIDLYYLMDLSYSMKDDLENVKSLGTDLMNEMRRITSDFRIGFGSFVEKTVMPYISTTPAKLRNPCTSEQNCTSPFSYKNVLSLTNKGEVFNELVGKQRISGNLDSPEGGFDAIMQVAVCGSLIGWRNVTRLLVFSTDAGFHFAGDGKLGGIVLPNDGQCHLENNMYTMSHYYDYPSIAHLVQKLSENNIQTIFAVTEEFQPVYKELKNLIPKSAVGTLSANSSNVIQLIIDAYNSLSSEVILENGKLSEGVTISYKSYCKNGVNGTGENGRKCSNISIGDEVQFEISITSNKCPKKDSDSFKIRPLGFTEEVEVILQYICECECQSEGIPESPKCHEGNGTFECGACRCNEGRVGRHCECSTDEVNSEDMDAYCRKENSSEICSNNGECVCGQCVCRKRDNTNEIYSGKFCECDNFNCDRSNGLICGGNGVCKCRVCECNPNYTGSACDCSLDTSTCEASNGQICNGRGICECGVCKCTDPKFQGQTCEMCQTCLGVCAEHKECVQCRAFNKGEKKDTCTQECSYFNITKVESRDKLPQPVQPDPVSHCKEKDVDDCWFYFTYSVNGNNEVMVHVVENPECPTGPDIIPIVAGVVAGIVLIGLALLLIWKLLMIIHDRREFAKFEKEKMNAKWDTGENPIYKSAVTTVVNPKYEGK
Chain of Integrin alpha-4/beta-1 (P13612 whole entry): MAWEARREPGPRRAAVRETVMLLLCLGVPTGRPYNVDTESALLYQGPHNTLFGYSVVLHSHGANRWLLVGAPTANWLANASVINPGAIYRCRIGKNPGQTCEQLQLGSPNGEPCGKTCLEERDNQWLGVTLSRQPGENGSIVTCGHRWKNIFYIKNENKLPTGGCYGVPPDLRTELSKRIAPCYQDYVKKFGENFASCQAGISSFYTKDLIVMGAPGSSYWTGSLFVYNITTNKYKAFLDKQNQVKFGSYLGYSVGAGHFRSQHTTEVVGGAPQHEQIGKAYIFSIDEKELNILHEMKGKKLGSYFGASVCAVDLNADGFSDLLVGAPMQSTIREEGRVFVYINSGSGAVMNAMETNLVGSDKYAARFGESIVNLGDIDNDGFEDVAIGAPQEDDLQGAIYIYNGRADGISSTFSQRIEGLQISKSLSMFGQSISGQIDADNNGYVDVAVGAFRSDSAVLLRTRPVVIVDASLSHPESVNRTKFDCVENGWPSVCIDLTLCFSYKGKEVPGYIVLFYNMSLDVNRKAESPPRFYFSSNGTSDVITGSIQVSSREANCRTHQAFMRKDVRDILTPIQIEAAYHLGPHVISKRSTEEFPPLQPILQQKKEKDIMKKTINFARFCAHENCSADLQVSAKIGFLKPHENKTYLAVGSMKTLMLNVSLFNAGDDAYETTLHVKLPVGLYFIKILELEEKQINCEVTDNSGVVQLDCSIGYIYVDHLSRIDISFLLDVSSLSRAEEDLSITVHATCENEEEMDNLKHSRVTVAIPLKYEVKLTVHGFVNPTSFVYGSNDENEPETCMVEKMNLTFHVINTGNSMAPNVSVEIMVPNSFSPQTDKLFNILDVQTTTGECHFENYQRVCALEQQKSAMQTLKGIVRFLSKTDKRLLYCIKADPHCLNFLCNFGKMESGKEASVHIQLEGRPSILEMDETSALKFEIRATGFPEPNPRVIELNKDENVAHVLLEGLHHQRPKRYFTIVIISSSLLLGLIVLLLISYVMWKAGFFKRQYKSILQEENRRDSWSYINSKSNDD

[10] = test system: Mus musculus; experiment: Immunosuppressive activity in B6D2F1 mouse model of graft-versus-host disease assessed as mean survival days at 3 mg/kg, ip administered for day 1 to day 10 (day 6 omitted) and measured at day 60; format: functional; conditions: time 60 day
[11] = test system: Rattus norvegicus; experiment: Immunosuppressive activity in Lewis rat model of Heart Allotransplantation assessed as mean survival days at 6 mg/kg, ip administered for 10 days by Manntel-Haenszel test; format: functional; conditions: time 10 day
[12] = test system: Mus musculus; experiment: Immunosuppressive activity in B6D2F1 mouse model of graft-versus-host disease assessed as mean survival days at 1 mg/kg, ip administered for day 1 to day 10 (day 6 omitted) and measured at day 60; format: functional; conditions: time 60 day
[13] = target: D(2) dopamine receptor (Bos taurus) (UniProt P20288); experiment: Modulation of [3H]Spiroperidol/N-Propylnorapomorphine binding to dopamine D2 receptor in bovine striatal membranes incubated for 1 hr by Cheng-Prusoff analysis; format: cell membranes; conditions: Striatum, Membrane, filed as modulator
Chain of D(2) dopamine receptor (Bos taurus) (P20288 whole entry): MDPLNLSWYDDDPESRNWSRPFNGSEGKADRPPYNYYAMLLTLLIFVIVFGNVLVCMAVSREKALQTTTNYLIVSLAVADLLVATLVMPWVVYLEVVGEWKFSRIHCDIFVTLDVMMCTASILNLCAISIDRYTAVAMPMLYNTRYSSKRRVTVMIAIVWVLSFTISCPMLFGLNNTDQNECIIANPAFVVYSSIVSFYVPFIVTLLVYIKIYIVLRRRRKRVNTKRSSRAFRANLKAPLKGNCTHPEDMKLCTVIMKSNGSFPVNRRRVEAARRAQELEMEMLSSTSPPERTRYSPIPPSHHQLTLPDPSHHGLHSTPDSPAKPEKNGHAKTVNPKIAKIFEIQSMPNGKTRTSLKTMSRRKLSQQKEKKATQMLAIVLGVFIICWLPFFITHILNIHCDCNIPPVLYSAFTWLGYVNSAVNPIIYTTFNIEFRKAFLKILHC

[14] = target: D(2) dopamine receptor (Bos taurus) (UniProt P20288); experiment: Modulation of [3H]Spiroperidol/N-Propylnorapomorphine binding to dopamine D2 receptor in bovine striatal membranes incubated for 1 hr in presence of Gpp(NH)p by Cheng-Prusoff analysis; format: cell membranes; conditions: Striatum, Membrane, filed as modulator
[15] = target: Cannabinoid receptor 1 (Homo sapiens, UniProt P21554); experiment: Displacement of [3H]CP-55940 from human CB1 receptor expressed in HEK cells by competitive binding assay; format: cell-based
Chain of Cannabinoid receptor 1 (P21554 whole entry): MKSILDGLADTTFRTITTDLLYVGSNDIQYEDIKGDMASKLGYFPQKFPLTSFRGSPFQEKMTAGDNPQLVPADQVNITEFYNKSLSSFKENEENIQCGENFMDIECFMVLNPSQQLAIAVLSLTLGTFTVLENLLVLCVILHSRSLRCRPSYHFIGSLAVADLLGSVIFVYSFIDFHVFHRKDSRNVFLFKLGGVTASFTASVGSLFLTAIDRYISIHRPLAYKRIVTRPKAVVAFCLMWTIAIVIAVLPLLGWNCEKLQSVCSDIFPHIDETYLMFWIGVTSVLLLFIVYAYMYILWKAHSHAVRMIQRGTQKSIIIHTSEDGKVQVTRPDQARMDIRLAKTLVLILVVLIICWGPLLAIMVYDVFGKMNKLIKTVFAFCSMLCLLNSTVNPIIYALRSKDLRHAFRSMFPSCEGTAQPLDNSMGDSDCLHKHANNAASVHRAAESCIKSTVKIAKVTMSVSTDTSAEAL

[16] = test system: Poly(dA-dT)oligonucleotide; experiment: Binding affinity to poly (dA-dT) (unknown origin) by ethidium displacement assay; format: nucleic-acid assay
[17] = test system: Poly(dG-dC)oligonucleotide; experiment: Binding affinity to poly (dG-dC) (unknown origin) by ethidium displacement assay; format: nucleic-acid assay
[18] = test system: MDA-MB-231; experiment: Antiproliferative activity against human MDA-MB-231 cells; format: functional, cell-based
[19] = test system: L1210; experiment: Antiproliferative activity against mouse L1210 cells incubated for 48 hrs by Coulter counter method; format: functional, cell-based; conditions: L1210, 48 h
[20] = test system: HeLa; experiment: Antiproliferative activity against human HeLa cells incubated for 4 days by Coulter counter method; format: functional, cell-based; conditions: 96 h
[21] = Growth inhibition of BAEC incubated for 3 days by Coulter counter method; conditions: Bos taurus, 72 h
[22] = test system: CCRF-CEM; experiment: Antiproliferative activity against human CEM cells incubated for 96 hrs by Coulter counter method; format: functional, cell-based
[23] = test system: HMEC-1; experiment: Growth inhibition of HMEC-1 incubated for 4 days by Coulter counter method; format: cell-based; conditions: Homo sapiens, HMEC-1, 96 h
[24] = test system: HL-60; experiment: Cytotoxicity against human HL-60 cells incubated for 96 hrs by MTT assay; format: functional, cell-based; conditions: HL-60, 96 h
[25] = test system: PC-3; experiment: Cytotoxicity against human PC-3 cells incubated for 96 hrs by MTT assay; format: functional, cell-based; conditions: PC-3, 96 h
[26] = test system: HT-29; experiment: Cytotoxicity against human HT-29 cells incubated for 96 hrs by MTT assay; format: functional, cell-based; conditions: HT-29, 96 h
[27] = target: T1, Human immunodeficiency virus type 1 protease; experiment: Inhibition of HIV1 protease
[28] = Selectivity index, ratio of Ki for human CB1 receptor expressed in HEK cells to Ki for human CB2 receptor expressed in HEK cells
[29] = target: Cannabinoid receptor 2 (Homo sapiens, UniProt P34972); experiment: Displacement of [3H]CP-55940 from human CB2 receptor expressed in HEK cells by competitive binding assay; format: cell-based
Chain of Cannabinoid receptor 2 (P34972 whole entry): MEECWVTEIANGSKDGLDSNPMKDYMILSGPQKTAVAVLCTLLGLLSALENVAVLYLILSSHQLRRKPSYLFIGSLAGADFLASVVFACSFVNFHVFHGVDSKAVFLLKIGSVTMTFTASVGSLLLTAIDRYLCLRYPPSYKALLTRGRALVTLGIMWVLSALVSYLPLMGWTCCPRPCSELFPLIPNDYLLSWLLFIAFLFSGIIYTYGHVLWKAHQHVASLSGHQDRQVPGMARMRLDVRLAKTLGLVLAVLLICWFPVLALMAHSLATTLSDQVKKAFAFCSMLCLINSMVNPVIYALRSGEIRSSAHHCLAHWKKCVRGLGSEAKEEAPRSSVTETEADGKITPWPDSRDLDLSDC

[30] = Inhibition of ACAT in cholesterol-fed New Zealand rabbit intestional microsomes using [1-14C]oleoyl-CoA as substrate preincubated for 5 mins followed by substrate addition and measured after 5 mins by liquid scintillation counting method; parameters: species or system Oryctolagus cuniculus, Intestine, Microsome

In the case of `CCN(C(C)C)S(=O)(=O)CC[C@@H]1O[C@@H]1[C@H](Cc1ccccc1)NC(=O)[C@H](CC(C)(C)S(C)(=O)=O)NC(=O)c1ccc2ccccc2n1`, the IC50 [1] is reported as 6.6 nM.
For `CCCCCCCCCCCCCCCCS(=O)(=O)N[C@@H](CO)[C@H](O)/C=C/c1ccc(Cl)cc1`, the IC50 [2] was 123000 nM, the IC50 [3] was 103000 nM and the IC50 [4] was 65000 nM. For the same compound, the IC50 [5] was 28000 nM and the IC50 [6] was 96000 nM.
For `CC(C)(C)NC(=O)[C@@H]1C[C@@H]2CCCC[C@@H]2CN1C[C@@H](O)[C@H](Cc1ccccc1)NC(=O)[C@@H](NC(=O)c1ccc2ccccc2n1)[C@@H]1CCOC1`, the IC95 [7] was 8 nM and the IC50 [8] was 0.24 nM.
Compound `COc1cccc(OC)c1-c1ccc(C[C@H](N=C(NCC(F)(F)F)[C@@H]2CCN2S(=O)(=O)c2ccccc2)C(=O)O)cc1` has an IC50 [9] of 0.13 nM.
`NCCCNCCCCNC(=O)NCC(=O)NCCCCCCN=C(N)N` showed a Survival [10] of 48 days, a Survival [11] of 12 days and a Survival [12] of 42 days.
Compound `NC(=O)[C@H]1CS[C@@H]2C[C@@H](N3CC(=O)N4CCC[C@H]4C3=O)C(=O)N12` has a KiH [13] of 0.098 nM, a KiL [13] of 171 nM and a KiH [14] of 0.14 nM. The KiL [14] was 183 nM.
In the case of `CCCCCn1cc(-c2cn(C34CC5CC(CC(C5)C3)C4)nn2)c(=O)c2cc(-c3ccco3)ccc21`, the Ki [15] is reported as > 10000 nM.
Compound `COc1cccc(OC)c1-c1ccc(C[C@H](N=C(N)[C@@H]2CCN2S(=O)(=O)c2ccccc2)C(=O)O)cc1` has an IC50 [9] of 0.1 nM.
In the case of `CN(C)CCCNC(=O)c1cc(NC(=O)c2cc(NC(=O)c3cc(NC=O)cn3C)cn2C)cn1C`, the Kapp [16] is reported as 150 10^5/M and the Kapp [17] is reported as 0.9 10^5/M.
`CC(C)(C)NC(=O)[C@@H]1C[C@@H]2CCCC[C@@H]2CN1C[C@@H](O)[C@H](Cc1ccccc1)NC(=O)[C@H](CC(N)=O)NC(=O)c1ccc2ccccc2n1` showed an IC95 [7] of 22 nM and an IC50 [8] of 0.5 nM.
For `O=C(OCc1ccc2c(c1)OCO2)c1ccc(Cl)c(Cl)c1`, the IC50 [18] was ≥ 200000 nM.
Work on `CS(=O)(=O)c1ccc(C(=O)Nc2ccc(Cl)c(-c3ccccn3)c2)c(Cl)c1` [VISMODEGIB] yielded an IC50 [19] of 49000 nM, an IC50 [20] of 64000 nM and an IC50 [21] of 50000 nM. For the same compound, the IC50 [22] was 58000 nM and the IC50 [23] was 41000 nM.
`CCCCCCCCCCCCNC(=O)N[C@@H](CO)[C@H](O)c1ccc([N+](=O)[O-])cc1` showed an IC50 [3] of 80000 nM, an IC50 [24] of 30000 nM and an IC50 [25] of 36000 nM. The IC50 [26] was 55000 nM and the IC50 [6] was 60000 nM.
`O=S(=O)(NCc1ccc2c(c1)OCO2)c1ccccc1` gave an IC50 [18] of 14200 nM.
With `O=C(N[C@@H](Cc1ccccc1)[C@@H](O)C[C@@H](Cc1ccccc1)C(=O)N[C@H]1c2ccccc2C[C@H]1O)O[C@H]1CCOC1` the IC95 [7] was 3 nM and the IC50 [27] was < 0.03 nM.
With `N=C(N)NCCCCCCC(=O)NC(O)C(=O)NCCCCNCCCN` (stereo unspecified) the Survival [10] was 57 days, the Survival [11] was 38 days and the Survival [12] was 38 days.
In the case of `CCCCCn1cc(-c2nc(C34CC5CC(CC(C5)C3)C4)no2)c(=O)c2cc(-c3ccco3)ccc21`, the Ki [15] is reported as 33 nM, the “Ratio Ki” value [28] is reported as >82 and the Ki [29] is reported as 0.4 nM.
In the case of `CC(C)C(NC(=O)C[C@@H]1O[C@@H]1[C@H](Cc1ccccc1)NC(=O)[C@H](CC(N)=O)NC(=O)c1ccc2ccccc2n1)C(C)C`, the IC50 [1] is reported as 20 nM.
For `NC(=O)CN1CC[C@@H](N2CC(=O)N3CCC[C@H]3C2=O)C1=O`, the KiH [13] was 0.08 nM, the KiL [13] was 69 nM and the KiH [14] was 0.19 nM. It also gave a KiL [14] of 50 nM.
Work on `NCCCNCCCCNC(=O)CC(=O)NCCCCCCN=C(N)N` yielded a Survival [10] of 52 days, a Survival [11] of 9 days and a Survival [12] of 53 days.
For `CC(C)c1cccc(C(C)C)c1NC(=O)NCC1(c2cccc(N(C)C)c2)CCCC1`, the IC50 [30] was 63 nM.
`COC(=O)c1ccc(-c2cn(-c3cccc(-c4ccccc4)c3)nn2)cc1` showed an IC50 [19] of 1100 nM, an IC50 [20] of 1100 nM and an IC50 [21] of 420 nM. For the same compound, the IC50 [22] was 920 nM and the IC50 [23] was 620 nM.
